# Assay results as given in US8143249B2 (Gilead Sciences, Inc., priority 2005, dated 2012).
# Test: Oral pharmacokinetics/bioavailability of prodrugs vs parent (compound 1) in rats, plasma LC/MS/MS
# Type: in vivo, Sprague Dawley rats
# Conditions: for Cmax: Sprague Dawley
# Experimental: The following studies were conducted in order to compare the pharmacokinetics of the parent A2B adenosine receptor antagonist and its corresponding prodrug. The parent compound chosen was the compound of formula A in which R^1 is n-propyl, R^2 is ethyl, R^3 is hydrogen, and R^4 is 3-trifluoromethylphenyl; that is:
# The studies were carried out in Sprague Dawley rats. The test compounds were administered orally by gavage to groups of three rats using a single oral dose of the test compound at 2 and 30 mg/kg. All oral doses were prepared either as a suspension in DMSO/ethanol/PEG300/0.1% N-methyl-D-glucamine or as a suspension in 0.5% methylcellulose in water. Blood samples were obtained serially from each rat at 0, 5, 15, 30 min, and then 1, 1.5, 2, 4, 6, 8, and 24 hrs post-dose.
# Concentrations of compound 1 and/or the corresponding prodrug in rat plasma were determined by a HPLC tandem mass spectrometric (LC/MS/MS) method. Briefly, 0.1 mL of plasma sample was treated with 0.5 mL of acetonitrile:methanol (9:1, v/v) mixture containing 25 ng of compound 1 having deuterated ethyl at the 3-position in place of ethyl. (Internal Standard, I.S.) to precipitate the protein. The mixture was filtered through a 96-well filter and filtrate was collected and evaporated to dryness on a 96-well plate evaporator. The residue was then reconstituted with 400 μL 20% methanol and subjected to LC/MS/MS analysis. Quantification of compound 1 was achieved by mass spectrometry using Multiple Reaction Monitoring (MRM) mode, monitoring the transitions at m/z 447.1>159.1 for compound 1 and 452.1>159.1 for I.S. The quantification limit of the assay was 0.38 ng/mL for the analysis of the oral dose samples and 10 ng/mL during the analysis of the intravenous dose samples using 0.1 mL of plasma.
# Non-compartmental pharmacokinetic parameters were determined using a commercial program WinNonLin Professional, Version 4.1 (Pharsight, Mountain View, Calif.). Plasma concentration at below level of detection was assumed to be zero for the calculation of means and pharmacokinetic parameters.
# For oral administration, the maximum concentration (Cmax) and time to reach Cmax (Tmax), AUC(0-1), AUC(0-8) and bioavailability (% F) were determined. Oral bioavailability was determined from the ratio of dose-adjusted AUC(0-8) of the respective oral dose and the mean AUC(0-8) values of the 0.1 and 0.5 mg/kg intravenous doses.
# The results are presented below in tabular form. The table provides results obtained by using a suspension of the test compound in a suspension in DMSO/ethanol/PEG300/0.1% N-methyl-D-glucamine in rats.
# [1] = unchanged prodrug in rat plasma after single oral gavage dose, suspension in DMSO/ethanol/PEG300/0.1% N-methyl-D-glucamine
SMILES,Cmax [1] [ng/mL],Prodrug Mean Dose Adjusted AUC [1],"plasma levels of parent compound 1 following oral dosing, compared with oral dosing of the parent itself (rats, oral, result in words)",Prodrug Mean Cmax [1] [ng/mL],"prodrug seen in plasma unmetabolized (rats, oral, result in words)"
"CCCC(=O)OCn1c(-c2cnn(Cc3cccc(C(F)(F)F)c3)c2)nc2c1c(=O)n(CCC)c(=O)n2CC [Compound 2, [3-ethyl-2,6-dioxo-1-propyl-8-(1-{[3-(trifluoromethyl)phenyl]methyl}pyrazol-4-yl)-1,3,7-trihydropurin-7-yl]methyl butanoate]",< 5,Not detectable,,,
"CCCn1c(=O)c2c(nc(-c3cnn(Cc4cccc(C(F)(F)F)c4)c3)n2COC(C)=O)n(CC)c1=O [Compound 3, [3-ethyl-2,6-dioxo-1-propyl-8-(1-{[3-(trifluoromethyl)phenyl]methyl}pyrazol-4-yl)-1,3,7-trihydropurin-7-yl]methyl acetate]",< 5,Not detectable,,,
"CCCn1c(=O)c2c(nc(-c3cnn(Cc4cccc(C(F)(F)F)c4)c3)n2COC(=O)C(C)(C)C)n(CC)c1=O [Compound 4, [3-ethyl-2,6-dioxo-1-propyl-8-(1-{[3-(trifluoromethyl)phenyl]methyl}pyrazol-4-yl)-1,3,7-trihydropurin-7-yl]methyl-2,2-dimethylpropanoate]",< 5,Not detectable,,,
CCCn1c(=O)c2c(nc(-c3cnn(Cc4cccc(C(F)(F)F)c4)c3)n2COC(=O)N(C)CCN(C)C)n(CC)c1=O [Compound 5],,Not detectable,approximately the same,<5,
"CCCn1c(=O)c2c(nc(-c3cnn(Cc4cccc(C(F)(F)F)c4)c3)n2COP(=O)(O)O)n(CC)c1=O [Compound 6, [3-ethyl-2,6-dioxo-1-propyl-8-(1-{[3-(trifluoromethyl)phenyl]methyl}-pyrazol-4-yl)(1,3,7-trihydropurin-7-yl)]methyl dihydrogen phosphate]",< 5,Not detectable,,,detected in the plasma unmetabolized
CCCn1c(=O)c2c(nc(-c3cnn(Cc4cccc(C(F)(F)F)c4)c3)n2COC(=O)NCCN(C)C)n(CC)c1=O [Compound 10],< 5,Not detectable,,,detected in the plasma unmetabolized
